This note sets out measurements from the NIST ThermoML archive (doi:10.1016/j.jct.2013.08.030).

± gives the expanded uncertainty stated by the source.

The data set is described as follows: activity coefficient (dimensionless); of the first substance listed, at infinite dilution; xn = mol fraction of the nth substance listed. The note with it: 101 kPa, Liquid, Chromatography, x1 = 0.

Turning to `Cc1ccccc1C` [1,2-dimethylbenzene] + CCCC[N+]1(C)CCOCC1.N#C[C-](C#N)C#N, the activity coefficient reads like this: (318.15 K) 2.96 ± 0.2; (328.15 K) 2.99 ± 0.2; (338.15 K) 3.02 ± 0.21; (348.15 K) 3.04 ± 0.21; (358.15 K) 3.07 ± 0.21; (368.15 K) 3.08 ± 0.21.

As for `Cc1cccc(C)c1` [1,3-dimethylbenzene] + CCCC[N+]1(C)CCOCC1.N#C[C-](C#N)C#N, the activity coefficient (318.15 K) came to 3.54 ± 0.24; the activity coefficient (328.15 K) turned out to be 3.56 ± 0.24; the activity coefficient (338.15 K) was found to be 3.61 ± 0.25; the activity coefficient (348.15 K) is 3.61 ± 0.25; the activity coefficient (358.15 K) came out at 3.62 ± 0.25; the activity coefficient (368.15 K) came out at 3.62 ± 0.25.

Consider `Cc1ccc(C)cc1` [1,4-dimethylbenzene] + CCCC[N+]1(C)CCOCC1.N#C[C-](C#N)C#N, for which the activity coefficient runs as follows: (318.15 K) 3.49 ± 0.24; (328.15 K) 3.52 ± 0.24; (338.15 K) 3.54 ± 0.24; (348.15 K) 3.57 ± 0.24; (358.15 K) 3.59 ± 0.24; (368.15 K) 3.63 ± 0.25.

`C1COCCO1` [1,4-dioxane] + CCCC[N+]1(C)CCOCC1.N#C[C-](C#N)C#N: the activity coefficient stood at 0.707 ± 0.047 (318.15 K); 0.74 ± 0.049 (328.15 K); 0.772 ± 0.05 (338.15 K); 0.798 ± 0.052 (348.15 K); 0.831 ± 0.054 (358.15 K); 0.853 ± 0.055 (368.15 K).

`C=CCCCCCCCC` [1-decene] + CCCC[N+]1(C)CCOCC1.N#C[C-](C#N)C#N: the activity coefficient is, setting by setting: (318.15 K) 118 ± 8; (328.15 K) 110 ± 8; (338.15 K) 101 ± 7; (348.15 K) 94.5 ± 6.5; (358.15 K) 87.8 ± 6; (368.15 K) 81.4 ± 5.6.

For `C=CCCCCC` [1-heptene] + CCCC[N+]1(C)CCOCC1.N#C[C-](C#N)C#N, the activity coefficient (318.15 K) was 34.1 ± 2.3; the activity coefficient (328.15 K) is 32 ± 2.2; the activity coefficient (338.15 K) came to 30.2 ± 2.1; the activity coefficient (348.15 K) came out at 28.7 ± 2; the activity coefficient (358.15 K) is 27.2 ± 1.9; the activity coefficient (368.15 K) turned out to be 25.7 ± 1.8.

For the compound `C#CCCCCC` [1-heptyne] + CCCC[N+]1(C)CCOCC1.N#C[C-](C#N)C#N, the activity coefficient (318.15 K) was determined as 8.28 ± 0.56; the activity coefficient (328.15 K) was 8.26 ± 0.56; the activity coefficient (338.15 K) came to 8.2 ± 0.56; the activity coefficient (348.15 K) turned out to be 8.2 ± 0.56; the activity coefficient (358.15 K) amounted to 8.13 ± 0.55; the activity coefficient (368.15 K) was 8.05 ± 0.55.

In the case of `C#CCCCC` [1-hexyne] + CCCC[N+]1(C)CCOCC1.N#C[C-](C#N)C#N, the activity coefficient was determined as 5.47 ± 0.37 (318.15 K); 5.5 ± 0.37 (328.15 K); 5.5 ± 0.37 (338.15 K); 5.54 ± 0.38 (348.15 K); 5.53 ± 0.38 (358.15 K); 5.51 ± 0.38 (368.15 K).

Turning to `CCC[N+](=O)[O-]` [1-nitropropane] + CCCC[N+]1(C)CCOCC1.N#C[C-](C#N)C#N, the activity coefficient worked out at 0.982 ± 0.062 (318.15 K); 0.99 ± 0.062 (328.15 K); 0.998 ± 0.062 (338.15 K); 1 ± 0.06 (348.15 K); 1.01 ± 0.06 (358.15 K); 1.01 ± 0.06 (368.15 K).

On to `C#CCCCCCC` [1-octyne] + CCCC[N+]1(C)CCOCC1.N#C[C-](C#N)C#N, for which the activity coefficient (318.15 K) came out at 12.8 ± 0.9; the activity coefficient (328.15 K) was 12.6 ± 0.9; the activity coefficient (338.15 K) is 12.4 ± 0.8; the activity coefficient (348.15 K) turned out to be 12.2 ± 0.8; the activity coefficient (358.15 K) is 12 ± 0.8; the activity coefficient (368.15 K) turned out to be 11.8 ± 0.8.

On to `C#CCCC` [1-pentyne] + CCCC[N+]1(C)CCOCC1.N#C[C-](C#N)C#N, for which the activity coefficient is, setting by setting: (318.15 K) 3.69 ± 0.25; (328.15 K) 3.73 ± 0.25; (338.15 K) 3.75 ± 0.26; (348.15 K) 3.8 ± 0.26; (358.15 K) 3.81 ± 0.26; (368.15 K) 3.83 ± 0.26.

For `CC(C)CC(C)(C)C` [2,2,4-trimethylpentane] + CCCC[N+]1(C)CCOCC1.N#C[C-](C#N)C#N, the activity coefficient came out at 103 ± 7 (318.15 K); 93.4 ± 6.4 (328.15 K); 84.2 ± 5.8 (338.15 K); 76.9 ± 5.3 (348.15 K); 70.8 ± 4.9 (358.15 K); 64.5 ± 4.4 (368.15 K).

Consider `CCC(C)(C)C` [2,2-dimethylbutane] + CCCC[N+]1(C)CCOCC1.N#C[C-](C#N)C#N, for which the activity coefficient is 56.7 ± 3.9 (318.15 K); 49.8 ± 3.4 (328.15 K); 44.5 ± 3 (338.15 K); 40.9 ± 2.8 (348.15 K); 37.7 ± 2.6 (358.15 K); 34.8 ± 2.4 (368.15 K).

In the case of `CCOC(C)(C)C` [2-ethoxy-2-methylpropane] + CCCC[N+]1(C)CCOCC1.N#C[C-](C#N)C#N, the activity coefficient (318.15 K) worked out at 16.8 ± 1.1; the activity coefficient (328.15 K) came to 16.2 ± 1.1; the activity coefficient (338.15 K) was 15.6 ± 1.1; the activity coefficient (348.15 K) came to 15.3 ± 1; the activity coefficient (358.15 K) turned out to be 14.9 ± 1; the activity coefficient (368.15 K) amounted to 14.6 ± 1.

As to `CCC(C)(C)OC` [2-methoxy-2-methylbutane] + CCCC[N+]1(C)CCOCC1.N#C[C-](C#N)C#N, the activity coefficient is, setting by setting: (318.15 K) 8.61 ± 0.59; (328.15 K) 8.52 ± 0.58; (338.15 K) 8.42 ± 0.57; (348.15 K) 8.37 ± 0.57; (358.15 K) 8.29 ± 0.57; (368.15 K) 8.21 ± 0.56.

Consider `COC(C)(C)C` [2-methoxy-2-methylpropane] + CCCC[N+]1(C)CCOCC1.N#C[C-](C#N)C#N, for which the activity coefficient runs as follows: (318.15 K) 5.74 ± 0.39; (328.15 K) 5.77 ± 0.39; (338.15 K) 5.74 ± 0.39; (348.15 K) 5.76 ± 0.39; (358.15 K) 5.77 ± 0.39; (368.15 K) 5.78 ± 0.39.

For `CC(C)CO` [2-methyl-1-propanol] + CCCC[N+]1(C)CCOCC1.N#C[C-](C#N)C#N, the activity coefficient came out at 2.19 ± 0.15 (318.15 K); 2.03 ± 0.14 (328.15 K); 1.87 ± 0.13 (338.15 K); 1.74 ± 0.12 (348.15 K); 1.65 ± 0.11 (358.15 K); 1.56 ± 0.1 (368.15 K).

In the case of `CC(C)(C)O` [2-methylpropan-2-ol] + CCCC[N+]1(C)CCOCC1.N#C[C-](C#N)C#N, the activity coefficient reads like this: (318.15 K) 2 ± 0.14; (328.15 K) 1.88 ± 0.13; (338.15 K) 1.77 ± 0.12; (348.15 K) 1.69 ± 0.11; (358.15 K) 1.63 ± 0.11; (368.15 K) 1.58 ± 0.1.

On to `CCC(C)CC` [3-methylpentane] + CCCC[N+]1(C)CCOCC1.N#C[C-](C#N)C#N, for which the activity coefficient runs as follows: (318.15 K) 51.3 ± 3.5; (328.15 K) 46 ± 3.1; (338.15 K) 42.3 ± 2.9; (348.15 K) 38.9 ± 2.7; (358.15 K) 36.3 ± 2.5; (368.15 K) 33.5 ± 2.3.

Regarding `C=C(C)c1ccccc1` [(1-methylethenyl)benzene] + CCCC[N+]1(C)CCOCC1.N#C[C-](C#N)C#N, the activity coefficient reads like this: (318.15 K) 2.8 ± 0.19; (328.15 K) 2.89 ± 0.2; (338.15 K) 2.99 ± 0.2; (348.15 K) 3.07 ± 0.21; (358.15 K) 3.15 ± 0.21; (368.15 K) 3.22 ± 0.22.

Turning to `CC(C)=O` [acetone] + CCCC[N+]1(C)CCOCC1.N#C[C-](C#N)C#N, the activity coefficient reads like this: (318.15 K) 0.741 ± 0.049; (328.15 K) 0.75 ± 0.049; (338.15 K) 0.765 ± 0.05; (348.15 K) 0.774 ± 0.051; (358.15 K) 0.791 ± 0.051; (368.15 K) 0.798 ± 0.052.

With `CC#N` [acetonitrile] + CCCC[N+]1(C)CCOCC1.N#C[C-](C#N)C#N, the activity coefficient (318.15 K) stood at 0.617 ± 0.043; the activity coefficient (328.15 K) was 0.62 ± 0.043; the activity coefficient (338.15 K) stood at 0.624 ± 0.043; the activity coefficient (348.15 K) is 0.624 ± 0.043; the activity coefficient (358.15 K) is 0.629 ± 0.043; the activity coefficient (368.15 K) was 0.63 ± 0.044.

As for `c1ccccc1` [benzene] + CCCC[N+]1(C)CCOCC1.N#C[C-](C#N)C#N, the activity coefficient was found to be 1.53 ± 0.1 (318.15 K); 1.55 ± 0.1 (328.15 K); 1.57 ± 0.1 (338.15 K); 1.58 ± 0.1 (348.15 K); 1.61 ± 0.11 (358.15 K); 1.62 ± 0.11 (368.15 K).

In the case of `CCCCO` [butan-1-ol] + CCCC[N+]1(C)CCOCC1.N#C[C-](C#N)C#N, the activity coefficient came to 2.18 ± 0.15 (318.15 K); 2.04 ± 0.14 (328.15 K); 1.91 ± 0.13 (338.15 K); 1.79 ± 0.12 (348.15 K); 1.7 ± 0.11 (358.15 K); 1.61 ± 0.11 (368.15 K).

Turning to `CCC(C)O` (configuration not stated) [butan-2-ol] + CCCC[N+]1(C)CCOCC1.N#C[C-](C#N)C#N, the activity coefficient (318.15 K) came to 2.05 ± 0.14; the activity coefficient (328.15 K) came to 1.93 ± 0.13; the activity coefficient (338.15 K) was found to be 1.81 ± 0.12; the activity coefficient (348.15 K) amounted to 1.71 ± 0.11; the activity coefficient (358.15 K) is 1.64 ± 0.11; the activity coefficient (368.15 K) was determined as 1.58 ± 0.1.

`CCCC=O` [butanal] + CCCC[N+]1(C)CCOCC1.N#C[C-](C#N)C#N: the activity coefficient by setting is: (318.15 K) 1.2 ± 0.08; (328.15 K) 1.24 ± 0.08; (338.15 K) 1.26 ± 0.08; (348.15 K) 1.3 ± 0.08; (358.15 K) 1.33 ± 0.09; (368.15 K) 1.35 ± 0.09.

In the case of `C1CCCCCC1` [cycloheptane] + CCCC[N+]1(C)CCOCC1.N#C[C-](C#N)C#N, the activity coefficient (318.15 K) came to 28.1 ± 1.9; the activity coefficient (328.15 K) is 26 ± 1.8; the activity coefficient (338.15 K) came out at 24 ± 1.6; the activity coefficient (348.15 K) stood at 22.5 ± 1.5; the activity coefficient (358.15 K) came out at 21 ± 1.4; the activity coefficient (368.15 K) stood at 19.7 ± 1.3.
